What was measured:
[1] = Thiol reactivity of the compound in DMSO/PBS buffer assessed as adduct formation by measuring half life of parent compound by 1H NMR analysis; assay type: physicochemical
[2] = Glutathione reactivity of the compound in DMSO and phosphate buffer assessed as second order rate constant for adduct formation
[3] = Thiol reactivity of the compound in PBS/DMSO buffer assessed as pseudo-first order rate constant for adduct formation
[4] = Glutathione reactivity of the compound in PBS buffer assessed as rate constant for 1,4-adduct formation at pH 7.4
[5] = Cysteine reactivity of the compound assessed as second order rate constant by 1H NMR analysis
rhinovirus B14 [6] = experiment: Irreversible inhibition of human rhinovirus serotype 14 3C protease assessed as ratio of Kobs/I by spectrofluorimetric analysis
rhinovirus B14 [7] = experiment: Antiviral activity against rhinovirus serotype 14 infected in human H1HeLa cells after 2 days by XTT/PMS dye based assay; assay type: functional, cell-based; conditions: Rhinovirus B, H1-HeLa, 48 h
[8] = Cytotoxicity against human H1HeLa cells after 2 days by XTT/PMS dye based assay; assay type: cell-based, H1-HeLa
[9] = Cysteamine reactivity of the compound in TRIS-HCL assessed as second order rate constant at 40 uM and pH 7.4
518A2 = experiment: Cytotoxicity against human 518A2 cells assessed as reduction in cell viability after 96 hrs by SRB asssay; assay type: functional, cell-based; conditions: 518A2, 96 h
A-431 = experiment: Cytotoxicity against human A431 cells assessed as reduction in cell viability after 96 hrs by SRB asssay; assay type: functional, cell-based; conditions: A-431, 96 h
A549 = experiment: Cytotoxicity against human A549 cells assessed as reduction in cell viability after 96 hrs by SRB asssay; assay type: functional, cell-based; conditions: A549, 96 h
HT-29 = experiment: Cytotoxicity against human HT-29 cells assessed as reduction in cell viability after 96 hrs by SRB asssay; assay type: functional, cell-based; conditions: HT-29, 96 h
MCF7 = experiment: Cytotoxicity against human MCF7 cells assessed as reduction in cell viability after 96 hrs by SRB asssay; assay type: functional, cell-based; conditions: MCF7, 96 h

N#Cc1ccc(C(C#N)C(SCCO)c2ccccc2)cc1 (configuration not stated)
t1/2 [1]: 8.9 min

C=C(C=O)CC
K [2]: 59.4 M⁻¹ s⁻¹

C=CC(=O)Nc1ccccc1
K [3]: 1.6 ×10⁻⁴ /s

CC(CC=O)SC[C@H](NC(=O)CC[C@H](N)C(=O)O)C(=O)NCC(=O)O (some centres not stated)
K [4]: 0.78 M⁻¹ s⁻¹

COC(=O)/C=C/CNC(=O)c1ccccc1
K [3]: 3.7 ×10⁻⁴ /s

NC(=O)CI
K [5]: 25 M⁻¹ s⁻¹

COC(=O)/C=C/[C@H](CCC(N)=O)NC(=O)[C@H](Cc1ccccc1)NC(=O)[C@H](CC(C)C)NC(=O)OCc1ccccc1
Ratio (rhinovirus B14 [6]): 20000 M⁻¹ s⁻¹ | EC50 (rhinovirus B14 [7]): 1300 nM | CC50 at 48 h [8]: > 320 µM

COc1ccc(C(=O)C(I)C(SCCN)c2ccc(OC)c(OC)c2)c(OC)c1 (configuration not stated)
K [9]: 0.28 M⁻¹ s⁻¹

CC(C)C[C@H](NC(=O)OCc1ccccc1)C(=O)N[C@@H](Cc1ccccc1)C(=O)N[C@H](/C=C/C(=O)c1ccccc1)CCC(N)=O
Ratio (rhinovirus B14 [6]): 500000 M⁻¹ s⁻¹ | EC50 (rhinovirus B14 [7]): 4000 nM | CC50 at 48 h [8]: 16 µM

C=C(C)C(=O)O[C@H]1CC2=C[C@@H](C[C@@]3(C)O[C@H]3[C@H]3OC(=O)C(CSC[C@H](N)C(=O)O)[C@@H]31)OC2=O (some centres not stated)
K [5]: 1.7 M⁻¹ s⁻¹

CC(=O)/C=C/[C@H](CCC(N)=O)NC(=O)[C@H](Cc1ccccc1)NC(=O)[C@H](CC(C)C)NC(=O)OCc1ccccc1
Ratio (rhinovirus B14 [6]): 54000 M⁻¹ s⁻¹ | EC50 (rhinovirus B14 [7]): 2000 nM | CC50 at 48 h [8]: 60 µM

CC(C)C[C@H](NC(=O)OCc1ccccc1)C(=O)N[C@@H](Cc1ccccc1)C(=O)N[C@H](/C=C/C(=O)N1CCOC1=O)CCC(N)=O
Ratio (rhinovirus B14 [6]): 600000 M⁻¹ s⁻¹ | EC50 (rhinovirus B14 [7]): 1600 nM | CC50 at 48 h [8]: > 100 µM

CC1=CCCC1=O
K [2]: 0.2 M⁻¹ s⁻¹

CC1=CC[C@]23O[C@@]2(C)CC[C@@H]2[C@H](OC(=O)[C@H]2CSc2ccccc2C(=O)O)[C@@H]13
IC50 (518A2): 16.9 µM | IC50 (A-431): 13.6 µM | IC50 (A549): 10.1 µM | IC50 (HT-29): 17.8 µM | IC50 (MCF7): 16.9 µM

N#CC(c1ccncc1)C(SCCO)c1ccccc1 (configuration not stated)
t1/2 [1]: 4.6 min

C/C=C/C(C)=O
K [2]: 26.7 M⁻¹ s⁻¹

CC(CC=O)SC[C@H](N)C(=O)O (some centres not stated)
K [4]: 8.9 M⁻¹ s⁻¹

COc1ccc(C(=O)C(c2ccccc2)C(SCCN)c2ccc(OC)c(OC)c2)c(OC)c1 (configuration not stated)
K [9]: 0.0067 M⁻¹ s⁻¹

CC1=CC[C@]23O[C@@]2(C)CC[C@@H]2[C@H](OC(=O)[C@H]2CN2CCNCC2)[C@@H]13
IC50 (518A2): 15 µM | IC50 (A-431): 4.4 µM | IC50 (A549): 15.7 µM | IC50 (HT-29): 15.1 µM | IC50 (MCF7): 15.1 µM

CC1=CC[C@]23O[C@@]2(C)CC[C@@H]2[C@H](OC(=O)[C@H]2CN2CCCCC2)[C@@H]13
IC50 (518A2): 14.3 µM | IC50 (A-431): 18.9 µM | IC50 (A549): 4.76 µM | IC50 (HT-29): 8.1 µM | IC50 (MCF7): 16.9 µM

COc1ccc(C(=O)NC/C=C/S(C)(=O)=O)cc1
K [3]: 2.8 ×10⁻³ /s

C=CS(=O)(=O)Nc1ccc([N+](=O)[O-])cc1
K [3]: 9 ×10⁻³ /s

CC1=CC[C@]23O[C@@]2(C)CC[C@@H]2[C@H](OC(=O)[C@H]2CN(C)C)[C@@H]13
IC50 (518A2): 5.54 µM | IC50 (A-431): 5.19 µM | IC50 (A549): 1.95 µM | IC50 (HT-29): 10.8 µM | IC50 (MCF7): 1.85 µM

CC1=CC[C@]23O[C@@]2(C)CC[C@@H]2[C@H](OC(=O)[C@H]2CN2CCSCC2)[C@@H]13
IC50 (518A2): 13.2 µM | IC50 (A-431): 16.9 µM | IC50 (A549): 4.76 µM | IC50 (HT-29): 16.2 µM | IC50 (MCF7): 13.4 µM

CS(=O)(=O)/C=C/CNC(=O)c1ccccc1
K [3]: 3.9 ×10⁻³ /s

C#CCOC(=O)C=C
K [2]: 51.4 M⁻¹ s⁻¹

CC1OC(O)CC1SC[C@@H](N)C(=O)O (some centres not stated)
K [4]: 25 M⁻¹ s⁻¹

CC/C=C/C=O
K [2]: 28.3 M⁻¹ s⁻¹

CC(C)C[C@H](NC(=O)OCc1ccccc1)C(=O)N[C@@H](Cc1ccccc1)C(=O)N[C@H](/C=C1\CCOC1=O)CCC(N)=O
Ratio (rhinovirus B14 [6]): 10900 M⁻¹ s⁻¹ | EC50 (rhinovirus B14 [7]): 5200 nM | CC50 at 48 h [8]: > 320 µM

O=C(/C=C/c1ccccc1)c1ccccc1
K [9]: 3 M⁻¹ s⁻¹

CC(C)C[C@H](NC(=O)OCc1ccccc1)C(=O)N[C@@H](Cc1ccccc1)C(=O)N[C@H](/C=C/C(=O)n1ccc2ccccc21)CCC(N)=O
Ratio (rhinovirus B14 [6]): 53000 M⁻¹ s⁻¹ | EC50 (rhinovirus B14 [7]): 1800 nM | CC50 at 48 h [8]: 29 µM

C=CC#CC(C)=O
K [2]: 80 M⁻¹ s⁻¹

CC(C)C[C@H](NC(=O)OCc1ccccc1)C(=O)N[C@@H](Cc1ccccc1)C(=O)N[C@H](/C=C/C(=O)O)CCC(N)=O
Ratio (rhinovirus B14 [6]): 30 M⁻¹ s⁻¹ | EC50 (rhinovirus B14 [7]): > 100000 nM | CC50 at 48 h [8]: > 100 µM

COc1ccc(C(=O)C(Cl)C(SCCN)c2ccc(OC)c(OC)c2)c(OC)c1 (configuration not stated)
K [9]: 1.6 M⁻¹ s⁻¹

CC1=CC[C@]23O[C@@]2(C)CC[C@@H]2[C@H](OC(=O)[C@H]2CSCCO)[C@@H]13
IC50 (518A2): 16.9 µM | IC50 (A-431): 12.8 µM | IC50 (A549): 12.8 µM | IC50 (HT-29): 18.6 µM | IC50 (MCF7): 17.3 µM

COc1ccc(C(=O)C(C(=O)O)C(SCCN)c2ccc(OC)c(OC)c2)c(OC)c1 (configuration not stated)
K [9]: 0.0037 M⁻¹ s⁻¹

CCOC(=O)/C(C)=C/[C@H](CCC(N)=O)NC(=O)[C@H](Cc1ccccc1)NC(=O)[C@H](CC(C)C)NC(=O)OCc1ccccc1
Ratio (rhinovirus B14 [6]): 7300 M⁻¹ s⁻¹ | EC50 (rhinovirus B14 [7]): 3000 nM | CC50 at 48 h [8]: > 320 µM

CC(=O)N1CC/C(=C\[C@H](CCC(N)=O)NC(=O)[C@H](Cc2ccccc2)NC(=O)[C@H](CC(C)C)NC(=O)OCc2ccccc2)C1=O
Ratio (rhinovirus B14 [6]): 156000 M⁻¹ s⁻¹ | EC50 (rhinovirus B14 [7]): 710 nM | CC50 at 48 h [8]: > 100 µM

CCC/C=C/C/C=C/C=O
K [2]: 22.8 M⁻¹ s⁻¹

COc1ccc(C(=O)C(F)C(SCCN)c2ccc(OC)c(OC)c2)c(OC)c1 (configuration not stated)
K [9]: 0.017 M⁻¹ s⁻¹

C=C1C(=O)O[C@@H]2[C@H]3C(C)=CC[C@@]34O[C@@]4(C)CC[C@@H]12 [ARGLABIN]
IC50 (518A2): 6.72 µM | IC50 (A-431): 4.48 µM | IC50 (A549): 2.21 µM | IC50 (HT-29): 7 µM | IC50 (MCF7): 2.33 µM

Source: ChEMBL document CHEMBL4024702, “Covalent Modifiers: A Chemical Perspective on the Reactivity of α,β-Unsaturated Carbonyls with Thiols via Hetero-Michael Addition Reactions” (J Med Chem, 2017)
